This is an account of results in patent US4528392A, “Aromatic compounds as antiallergic agents” (American Home Products Corporation, priority 1984, dated 1985).

Experiment [1] concerns synthesis of 5-HETE by rat glycogen-elicited polymorphonuclear leukocytes (lipoxygenase). Description: inhibition of 5-HETE synthesis by rat glycogen-elicited polymorphonuclear leukocytes. The class given is cell-based, rat (female Wistar). The note with it: Leukocyte, read-out: 50% Inhibitory Concentration (IC50) 5-HETE; rat peritoneal PMN, A23187 10 μM, [14C]arachidonic acid, 10 min preincubation at 37° C. The method, then:
(§1) Roy. […] Med., 74, 831 (1981)]. […] The assay is carried out as follows: Peritoneal PMN are obtained from female Wistar rats (150-250 g) that received an i.p. injection of 6% glycogen (10 ml). After 24 hours, rats are killed by CO2 asphyxiation and peritoneal cells are harvested by peritoneal lavage using Ca^++ and Mg^++ free Hanks' balanced salt solution (HBSS). The peritoneal exudate is centrifuged at 400 g for 10 minutes. […] To 1 ml portions of cell suspension, test drugs or vehicle are added and incubated at 37° C. for 10 minutes. […] The reaction is stopped by the addition of ice cold water (3 ml) and acidifying to pH 3.5. Lipoxygenase products are then extracted twice into diethyl ether.

Experiment [2] concerns synthesis of LTB4 by rat glycogen-elicited polymorphonuclear leukocytes (lipoxygenase). Description: inhibition of LTB4 (5,12-diHETE) synthesis by rat glycogen-elicited polymorphonuclear leukocytes. The experiment is classed as cell-based, rat (female Wistar). The note with it: Leukocyte, read-out: 50% Inhibitory Concentration (IC50) LTB4; rat peritoneal PMN, A23187 10 μM, [14C]arachidonic acid, 10 min preincubation at 37° C. The protocol:
as §1

The test system of experiment [3] is LTD4 induced bronchoconstriction. The experiment can be described thus: in vivo inhibition of bronchospasm induced in guinea pigs by exogenously administered leukotriene (LTD4). The note with it: 50 mg/kg intraduodenal, 10 minutes before induction of bronchospasm by LTD4. More on the design: species or system guinea pig (male Hartley). The method, then:
The assay of this Example measures the in vivo ability of the compounds of the invention to inhibit the bronchospasm induced in guinea pigs by the exogenously administered leukotrienes C4 and/or D4. This assay is essentially a measure of the SRS-A antagonist properties of the compounds tested.
This assay is carried out as follows:
Male Hartley strain guinea pigs (350-600 g) are anesthetized with pentobarbital sodium (50 mg/kg, i.p.). The jugular vein is cannulated for injection of drugs and the carotid artery for monitoring blood pressure. The trachea is cannulated for artificial ventilation by a miniature Starling pump and for indirect measurement of respiratory volume changes as described infra. Additional pentobarbital sodium (15 mg/kg, i.v.) is administered to arrest spontaneous respiration. Submaximal bronchoconstrictor responses are established in control animals by varying the dose-levels of leukotriene. Intravenous dose-levels for LTC4 range from 1 to 2 μg/kg and for LTD4 the range is from 0.3 to 1 μg/kg. The aerosol bronchoprovocation dose for LTC4 is generated from 1.6 μM solution and for LTD4 from a 2.0 μM solution.
Test drugs are administered either intravenously, intraduodenally, by aerosol or orally at 1 or 10 minutes before induction of bronchospasm by administration of either LTC4 or LTD4 at the predetermined dose-levels. Aerosols of soluble drugs or leukotrienes are produced in-line for 10 seconds only by actuation of an ultrasonic nebulizer (Monaghan). Aerosolized drug dosage is expressed in terms of solution concentration and by a fixed aerosol exposure time (approximately 10 seconds). Control animals receive saline in place of drug.
Respiratory volume changes are determined by a calibrated piston whose travel is recorded, via a linear transducer, on a Beckman Dynograph recorder. Maximal bronchoconstrictor volume is determined by clamping off the trachea at the end of the experiment. Overflow volumes at 1, 3 and 5 minutes are obtained from the recorded charts.
The overflow volume at 1, 3 and 5 minutes is expressed as a percentage of maximal bronchoconstriction. […]

Experiment [4] relates to ovalbumin induced bronchospasm mediated by endogenous products of the lipoxygenase oxidation of arachidonic acid. Description: in vivo inhibition of ovalbumin induced bronchospasm in guinea pigs by endogenous mediators. More on the design: species or system guinea pig (male Hartley). As to conditions: 50 mg/kg intraduodenal, 10 minutes before ovalbumin challenge, indomethacin and chlorpheniramine pretreated. The protocol: The assay of this Example measures the in vivo ability of the compounds of the invention to inhibit the bronchospasm induced in guinea pigs by endogenous mediators of the bronchoconstriction.
The assay is carried out as follows:
Male Hartley strain guinea pigs weighing 350-600 g are sensitized to ovalbumin (OA) (5 mg i.p. and 5 mg s.c.) on day 0. Three to five weeks later, the animals are anesthetized with pentobarbital sodium (50 mg/kg, i.p.). The jugular vein is cannulated for injection of drugs and the carotid artery for monitoring blood pressure. The trachea is cannulated for artificial ventilation by miniature Staring pump and for indirect measurement of respiratory volume changes as described, infra. Additional pentobarbital sodium (15 mg/kg, i.v.) is administered to arrest spontaneous respiration. A cyclooxygenase inhibitor, indomethacin (10 mg/kg in tris buffer, i.v. at 9 min.) is administered to shunt arachidonic metabolism to lipoxygenase pathways. One minute later, chlorpheniramine (1.0 mg/kg in saline, i.v.) is given to attenuate the histaminic component of anaphylactic bronchoconstriction. Test drugs are administered either intravenously, intraduodenally or by aerosol at 2 or 10 minutes before antigen challenge. Anaphylactic bronchoconstriction is induced by administration of aerosolized OA (1%). Aerosols of OA or soluble drug are produced in-line for 10 seconds only by actuation of an ultrasonic nebulizer (Monaghan). Aerosolized drug dosage is expressed in terms of solution concentration and by a fixed aerosol exposure time (approximately10 seconds). Control animals receive saline in place of drug.
Respiratory volume changes are determined by a calibrated piston whose travel is recorded, via a linear transducer, on a Beckman Dynograph recorder. Maximal bronchoconstrictor volume is determined by clamping off the trachea at the end of the experiment. Overflow volumes at minutes 1, 3 and 5 are obtained from the recorded charts.
The overflow volume at 1, 3 and 5 minutes is expressed as a percentage of maximal bronchoconstriction. Combined group values are used from each of these time intervals to determine the inhibitory effect of drugs. [formula] Students t-test for unpaired data is used to determine statistical significance. Dose response curves are generated and ED50 doses are interpolated from the regression lines.
The results for three compounds of the invention, with administration of the compounds at 10 minutes before ovalbumin challenge are presented below: […]

`NC1=NN(c2cccc(C(F)(F)F)c2)CC1` [BW755C, reference compound]: the values for the IC50 in experiment [1] and in experiment [2] were 43 µM and 30 µM, respectively.

`COC(=O)CC(=O)Nc1cccc(COc2ccc(C(C)=O)c(O)c2)c1` [Example 1, 3-[[3-[(4-acetyl-3-hydroxyphenoxy)methyl]phenyl]amino]-3-oxopropanoic acid, methyl ester]: the IC50 in experiment [1] was determined as 14.2 µM; in experiment [2], 11.7 µM. Moreover, the “% Inhibition Overflow Volume at 1 min.” value in experiment [3] (1 min.) is given as 25%; in experiment [4], 99%. Moreover, the “% Inhibition Overflow Volume at 3 min.” value in experiment [3] (3 min.) came to 48%; in experiment [4], 77%. Also, the entries for the “% Inhibition Overflow Volume at 5 min.” value in experiment [3] (5 min.) and in experiment [4] were 56% and 63%, respectively.

Take `COC(=O)CCC(=O)Nc1cccc(COc2ccc(C(C)=O)c(O)c2)c1` [Example 2, 4-[[3-[(4-acetyl-3-hydroxyphenoxy)methyl]phenyl]amino]-4-oxobutanoic acid, methyl ester]: in experiment [4], the “% Inhibition Overflow Volume at 1 min.” value is reported as 93%, the “% Inhibition Overflow Volume at 3 min.” value came out at 24% and the “% Inhibition Overflow Volume at 5 min.” value came out at 35%.

In the case of `COC(=O)CC(=O)Nc1cccc(COc2ccc(C(C)=O)c(OC)c2)c1` [Example 4, 3-[[3-[(4-acetyl-3-methoxyphenoxy)methyl]phenyl]amino]-3-oxopropanoic acid, methyl ester], in experiment [4], the “% Inhibition Overflow Volume at 1 min.” value was found to be 88%, the “% Inhibition Overflow Volume at 3 min.” value was 67% and the “% Inhibition Overflow Volume at 5 min.” value was found to be 46%.

Take `CCCCCC(=O)c1ccc(OCc2cccc(NC(=O)CCC(=O)OC)c2)cc1OC` [Example 6c, 4-[[3-[[3-methoxy-4-(1-oxohexyl)phenoxy]methyl]phenyl]amino]-4-oxobutanoicacid, methyl ester]: the IC50 in experiment [1] stood at 3.71 µM; in experiment [2], 3.87 µM.

On to `CCc1ccc(OCc2cccc(NC(=O)CCC(=O)OC)c2)cc1OC` [Example 7, 4-[[3-[(4-ethyl-3-methoxyphenoxy)methyl]phenyl]amino]-4-oxobutanoic acid, methyl ester], for which the IC50 in experiment [1] was determined as 5.6 µM; in experiment [2] it was 7.09 µM.

As to `CCCCCCc1ccc(OCc2cccc(NC(=O)CC(=O)OC)c2)cc1OC` [Example 8b, 3-[[3-[(4-hexyl-3-methoxyphenoxy)methyl]phenyl]amino]-3-oxopropanoic acid, methyl ester], the IC50 in experiment [1] came to 1.59 µM; in experiment [2], 1.7 µM.
